What was measured:
[1] = biological target: human SST2 receptor (SSTR2) (Homo sapiens (Human), UniProt P30874); assay: cAMP assay: inhibition of cAMP via human SST2 receptor in CHO-K1 cells; assay type: cell-based; details: CHO-K1 cells stably expressing human SSTR2, NKH477 stimulated
Source text: (§1) General overview: All five SSTR subtypes are Gi coupled G-protein coupled receptors (GPCRs) that lead to decreases in intracellular cyclic AMP (cAMP) when activated by an agonist. Therefore, measurement of intracellular cAMP levels can be used to assess whether compounds of the invention are agonists of SSTR subtypes (John Kelly, Troy Stevens, W. Joseph Thompson, and Roland Seifert, Current Protocols in Pharmacology, 2005, 2.2.1-2.2). One example of an intracellular cAMP assay is described below.
(§2) Four days prior to the assay, 5,000 Chinese hamster ovary cells (CHO-K1, ATCC # CCL-61) stably expressing the human somatostatin receptor subtype 2 are plated in each well of a 96-well tissue culture-treated plate in Ham's F12 growth media (ThermoFisher #10-080-CM) supplemented with 10% donor bovine serum (Gemini Bio-Products #100-506), 100 U/mL penicillin; 100 ug/mL streptomycin; 2 mM L-glutamine (Gemini Bio-Products #400-110) and 0.2 mg/mL hygromycin B (GoldBio #31282-04-9). The cells are cultured at 37° C., 5% CO2 and 95% humidity. On the day of the assay, the media is aspirated and the cells are treated with 50 μL of 1.6 μM NKH477 (Sigma # N3290) plus various dilutions of compounds of the invention in assay buffer [1× Hank's Balanced Salt Solution (ThermoFisher # SH3058802), 0.5 mM HEPES pH 7.4, 0.1% bovine serum albumin, 0.2 mM 3-Isobutyl-1-methylxanthine (IBMX, VWR #200002-790)]. The cells are incubated for 20 minutes at 37° C. (the final concentration of the compounds of the invention are typically 0-10,000 nM). The cells are treated with 50 μL of lysis buffer (HRTF cAMP kit, Cisbio). The lysate is transferred to 384-well plates and cAMP detection and visualization antibodies are added and incubated for 1-24 hours at room temperature. The time-resolved fluorescent signal is read with a Tecan M1000Pro multiplate reader. The intracellular cAMP concentrations are calculated by regression to a standard curve and are plotted vs. the concentration of the compounds of the invention and the EC50 of the compounds are calculated using standard methods. All data manipulations are in GraphPad Prism v6.

hSSTR2 vs. hSSTR4 = assay: Selectivity for inhibition of cAMP via hSSTR2 vs. hSSTR4; assay type: cell-based, human; details: Table C
Source text: as §1, §2

[2] = Liver microsomal stability assay; assay type: in vitro ADME; details: human liver microsomes 0.5 mg/mL, 1 μM compound, 37° C.
Protocol: The in vitro stabilities of compounds of interest were determined for various species using pooled male and female human, pooled male Sprague-Dawley rat, pooled male Cynomolgus monkey, and pooled male Beagle dog liver microsomes at microsomal protein concentrations of 0.5 mg/mL. Incubations were carried out in a potassium phosphate buffer (50 mM). The NADPH-generating system was composed of NADP+ (1 mM), magnesium chloride (3 mM), EDTA (1 mM), glucose-6-phosphate (5 mM) and glucose-6-phosphate dehydrogenase (1 Unit/mL) for all experiments. Compounds of interest in DMSO were added to achieve a final incubation concentration of 1 μM (final DMSO content was 0.1% v/v and final acetonitrile content was 0.9%). The final incubation volume was 400 μL. Incubations were conducted at 37° C. for 0, 5, 10, 20, 40 and 60 minutes in a shaking water bath and terminated by removing 50 μL of incubation mixture and adding to 100 μL of ice cold acetonitrile containing internal standard. Following precipitation by centrifugation at 3500 rpm and 4° C. for 30 minutes, compounds of interest and internal standard were analyzed in the resultant supernatant using a multiple reaction monitoring (MRM) LC-MS/MS method. MS conditions were optimized for each analyte.
The following Table (Table D) illustrates human liver microsomal stability of exemplary compounds.

human SST2 receptor (SSTR2), sequence (P30874 whole entry): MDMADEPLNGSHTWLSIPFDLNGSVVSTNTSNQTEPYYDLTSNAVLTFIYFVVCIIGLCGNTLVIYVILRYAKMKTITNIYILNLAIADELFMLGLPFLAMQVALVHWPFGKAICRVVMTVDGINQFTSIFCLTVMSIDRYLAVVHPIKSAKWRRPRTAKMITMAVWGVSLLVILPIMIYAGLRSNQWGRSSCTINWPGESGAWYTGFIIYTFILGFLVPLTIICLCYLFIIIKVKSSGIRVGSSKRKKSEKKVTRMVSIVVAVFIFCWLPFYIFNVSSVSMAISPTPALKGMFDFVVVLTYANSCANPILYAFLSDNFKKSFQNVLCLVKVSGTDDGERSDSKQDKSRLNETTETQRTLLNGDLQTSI

EC50 [1] | HLM t1/2 [2] | SMILES | hSST4/hSST2 (ratio) (hSSTR2 vs. hSSTR4)
0.1 to 1 nM | 231 min | Nc1ncc(-c2cccc(F)c2)c(N2CC[C@@H]3NCCO[C@H]3C2)c1-c1nc2c(F)cc(F)cc2[nH]1 [Compound 3-3, 4-[(4αS,8αS)-octahydro-1H-pyrido[3,4-b][1,4]oxazin-6-yl]-3-(4,6-difluoro-1H-1,3-benzodiazol-2-yl)-5-(3-fluorophenyl)pyridin-2-amine] | c (c = between 2.5 and 15;)
0.1 to 1 nM | >693 min | COc1cc(C#N)cc2[nH]c(-c3c(N)ncc(-c4cccc(F)c4)c3N3CC[C@@H]4NCCO[C@H]4C3)nc12 [Compound 3-11, 2-{4-[(4αS, 8αS)-octahydro-1H-pyrido[3,4-b][1,4]oxazin-6-yl]-2-amino-5-(3-fluorophenyl)pyridin-3-yl}-4-methoxy-1H-1,3-benzodiazole-6-carbonitrile] | a (a = above 50,)
0.1 to 1 nM | 99 min | COc1cc(C#N)cc2[nH]c(-c3c(N)ncc(-c4cc(F)cc(F)c4)c3N3CC[C@@H]4NCCO[C@H]4C3)nc12 [Compound 3-18, 2-{4-[(4αS,8αS)-octahydro-1H-pyrido[3,4-b][1,4]oxazin-6-yl]-2-amino-5-(3,5-difluorophenyl)pyridin-3-yl}-4-methoxy-1H-1,3-benzodiazole-6-carbonitrile] | b (b = bewteen 15 and 50;)
0.1 to 1 nM | 347 min | N#Cc1cc(F)c2nc(-c3c(N)ncc(-c4cc(F)cc(F)c4)c3N3CC[C@@H]4OCCN[C@H]4C3)[nH]c2c1 [Compound 3-19, 2-{4-[(4αS,8αS)-octahydro-1H-pyrido[3,4-b][1,4]oxazin-6-yl]-2-amino-5-(3,5-difluorophenyl)pyridin-3-yl}-4-fluoro-1H-1,3-benzodiazole-6-carbonitrile] | b (b = bewteen 15 and 50;)
